IC50 and AC50 data for 1 compound are collected here from patent publication US20250352539A1, “COMBINATION THERAPY FOR TREATING CANCER” (AstraZeneca AB, priority 2022, published 2025).

Where two headings read alike, the source gives them in different places.

What all share (type): cell-based
Test [1] relates to SJ-G2 IDHm. Kind of test: 7 days treatment combination assay in glioblastoma cell lines (Cell Titer Glow 2.0). The note with it: 168 h, paediatric GBM. The protocol: (§1) The assay was carried out in the following glioblastoma cell lines: • U87 • U87 R132H • T98G • SJ-G2 ctrl • SJ-G2 IDH using AZD6738 and AZD9574
(§2) The cells were seeded the day before drug treatment in 150 μl per well of 96-well plate. For SJ-G2 cells, the plates were coated with poly-Lysine solution for 15 minutes, washed twice with sterile water and dried for 1 hour.
(§3) The seeding numbers were (cells per well): U87-500; T98G-500; SJ-G2 ctrl-1000; SJ-G2 IDH.
(§4) The compounds were added via a drug dispenser according to the following scheme:
(§5) after 7 Days: • (a) for SJ-G2, 75 μl Cell Titer Glow 2.0 solution (Promega) was added and incubated for 15 minutes at 37° C. The cells were then read using a plate reader. • (b) for U87 and T98G, 75 μl of 37% formaldehyde was added and fixed for 20 minutes at room temperature. This was then washed twice with PBS, followed by Hoeschst staining for 1 hour at room temperature (Hoeschst 1:10000 in PBS). This was then washed twice in PBS and the plates sealed. The plates were then imaged on Cell Insight with 10× magnification at the 25 position. Hoeschst positive nuclei were identified as objects, and cell survival was analysed by counting objects (Hoeschst positive nuclei) with the corresponding settings for U87 or T98G.
(§6) An analysis of drug synergy was then carried out to yield a HSA score
(In general: ATP-based viability assays read luminescence as a measure of living cells.)

For test [2], the system named is SJ-G2 WT. Described as above. The settings on record: 168 h, paediatric GBM. The protocol:
as §1, §2, §3, §4, §5, §6

For test [3], the system named is NCI-H1395. Kind of test: 10-day Cell Titre Glo combination screen. The note with it: monotherapy, read-out: mono AC50. The source says: (§7) The Highest Single Agent (HSA) model is used to determine a combination's synergy score (and is based simply on the intuition that if a combination's effect exceeds the effect level of each of its constituents, there must be some combination interaction). Mathematically, the HSA model describes simple superposition of the single agent curves:
(§8) where CX,Y are the concentrations of the X and Y compound, and IX and IY are inhibitions of the single agents at CX,Y. It is also useful to calculate a volume score (HSA Volume) between the data and the HSA surface to characterise the overall strength of combination effects. Empirically derived combination matrices are compared to their respective HSA additivity models constructed from experimentally collected single agent dose response curves. Summation of this excess additivity across the dose response matrix is referred to HSA Volume.
(§9) Potency shifting can also be scored using combination index (CI). For a chosen iso-effect level (ICut), CI is calculated as: […]
(§10) where (CX/ECX) for a particular data point is the ratio of the X compound's measured concentration to its effective concentration at the chosen effect level. The CI is a rough estimate of how much drug was needed in combination relative to the single agent doses required to achieve the chosen effect level. CI values in the range of 0.5-0.7 are typical for in vitro measurements of current clinical combinations. The CI error (σCI) is calculated using standard error propagation through the CI calculation based on the isobologram errors.
(§11) This combination screen was a 10-day assay using Cell Titre Glo as the readout for viability.
(§12) The assay was performed in 384 well plates, with 1 cell line and 4 drug-drug combinations per plate dosed in a 6×6 matrix. A day zero reading was measured to determine growth inhibition. GenedataScreener was used to input the raw values for every well, and the software was programmed to normalise the values to the day zero and DMSO control values.
(§13) The CellTiter-Glo® Luminescent Cell Viability Assay is a homogeneous method to determine the number of viable cells in culture based on quantitation of the ATP present, which signals the presence of metabolically active cells. It relies on the properties of a proprietary thermostable luciferase (Ultra-Glo™ Recombinant Luciferase), which generates a stable “glow-type” luminescent signal and improves performance across a wide range of assay conditions.
(§14) The following information was reported: Synergy scores (HSA); combination index values; AC50 (half-maximal activity concentration) monotherapy values.

Test [4] has as its system HOP62. Kind of test: 10-day Cell Titre Glo combination screen. The note with it: Homo sapiens, HOP-62; HOP62 lung; monotherapy; read-out: mono AC50.
Source text: as §7, §8, §9, §10, §11, §12, §13, §14

The test system of test [5] is NCI-H1299. Kind of test: 10-day Cell Titre Glo combination screen. The note with it: Homo sapiens; NCI-H1299 lung; monotherapy; read-out: mono AC50.
Source text: as §7, §8, §9, §10, §11, §12, §13, §14

Test [6] has as its system MCF7 F100-16. Kind of test: 10-day Cell Titre Glo combination screen. The note with it: Homo sapiens; MCF7 F100-16 breast; monotherapy; read-out: mono AC50.
Source text: as §7, §8, §9, §10, §11, §12, §13, §14

The subject of test [7] is HCC1937. Kind of test: 10-day Cell Titre Glo combination screen. The settings on record: Homo sapiens; HCC1937 breast; monotherapy; read-out: mono AC50.
Source text: as §7, §8, §9, §10, §11, §12, §13, §14

Test [8] concerns MCF7. Kind of test: 10-day Cell Titre Glo combination screen. The note with it: Homo sapiens; MCF7 breast; monotherapy; read-out: mono AC50.
Source text: as §7, §8, §9, §10, §11, §12, §13, §14

The test system of test [9] is JIMT-1. Kind of test: 10-day Cell Titre Glo combination screen. The note with it: Homo sapiens; JIMT-1 breast; monotherapy; read-out: mono AC50.
Source text: as §7, §8, §9, §10, §11, §12, §13, §14

Test [10] has as its system BT-20. Kind of test: 10-day Cell Titre Glo combination screen. The settings on record: Homo sapiens; BT-20 breast; monotherapy; read-out: mono AC50.
Source text: as §7, §8, §9, §10, §11, §12, §13, §14

The test system of test [11] is HCC1569. Kind of test: 10-day Cell Titre Glo combination screen. The settings on record: Homo sapiens; HCC1569 breast; monotherapy; read-out: mono AC50.
Source text: as §7, §8, §9, §10, §11, §12, §13, §14

Test [12] relates to HCC15. Kind of test: 10-day Cell Titre Glo combination screen. The note with it: HCC15 lung; monotherapy; read-out: mono AC50.
Source text: as §7, §8, §9, §10, §11, §12, §13, §14

Test [13] deals with DU4475. Kind of test: 10-day Cell Titre Glo combination screen. The note with it: Homo sapiens, DU-4475; DU4475 breast; monotherapy; read-out: mono AC50.
Source text: as §7, §8, §9, §10, §11, §12, §13, §14

Test [14] concerns ZR-75-1. Kind of test: 10-day Cell Titre Glo combination screen. The note with it: Homo sapiens; ZR-75-1 breast; monotherapy; read-out: mono AC50.
Source text: as §7, §8, §9, §10, §11, §12, §13, §14

For test [15], the system named is NCI-H441. Kind of test: 10-day Cell Titre Glo combination screen. The settings on record: Homo sapiens; NCI-H441 lung; monotherapy; read-out: mono AC50.
Source text: as §7, §8, §9, §10, §11, §12, §13, §14

The subject of test [16] is NCI-H1666. Kind of test: 10-day Cell Titre Glo combination screen. The note with it: Homo sapiens; NCI-H1666 lung; monotherapy; read-out: mono AC50.
Source text: as §7, §8, §9, §10, §11, §12, §13, §14

Test [17] has as its system SUM52PE. Kind of test: 10-day Cell Titre Glo combination screen. The note with it: SUM52PE breast; monotherapy; read-out: mono AC50.
Source text: as §7, §8, §9, §10, §11, §12, §13, §14

Test [18] relates to NCI-H3122. Kind of test: 10-day Cell Titre Glo combination screen. The note with it: monotherapy, read-out: mono AC50.
Source text: as §7, §8, §9, §10, §11, §12, §13, §14

Regarding `C[C@@H]1COCCN1c1cc(C2([S@](C)(=N)=O)CC2)nc(-c2ccnc3[nH]ccc23)n1` [AZD6738, 4-{4-[(3R)-3-Methylmorpholin-4-yl]-6-[1-((R)—S-methylsulfonimidoyl)cyclopropyl]pyrimidin-2-yl}-1H-pyrrolo[2,3-b]-pyridine], the IC50 (commonly the point on the concentration scale where inhibition reaches its midpoint) in test [1] came to 308 nM; in test [2], 160 nM. Further, the AC50 – broadly, the concentration at which the activity in the assay is half-maximal – in test [3] (Homo sapiens, NCI-H1395, NCI-H1395 lung) was 3310 nM; in test [3] (NCI-H1395 lung), 2900 nM; in test [4], 590 nM; in test [5] it was 3180 nM; in [6], 1730 nM; in test [7], 570 nM. The AC50 in test [8] was 1120 nM; in test [9] it was 869 nM; in [10] it was 723 nM; in [11], 957 nM; in [12], 7020 nM; in [13] it was 3250 nM. Further, the AC50 in test [14] was 6030 nM; in test [15] it was 2960 nM; in test [16], 767 nM; in test [17], 6510 nM; in test [18] (Homo sapiens, NCI-H3122, NCI-H3122 lung) it was 3120 nM; in test [18] (NCI-H3122 lung), 3210 nM.
